Measurements as given in patent US11198695B2, “Fused ring derivative having MGAT-2 inhibitory activity” (Shionogi & Co., Ltd., priority 2017, dated 2021).

Target: recombinant human MGAT2 (Homo sapiens (Human), UniProt Q3SYC2)
Assay: Measurement of human MGAT2 inhibitory activity
Type: biochemical
Conditions: read-out: IC50 (concentration exhibiting 50% enzyme inhibition), Table 52
In short: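 Membrane fraction of Sf9 cells expressing N-terminally Flag-tagged full-length human MGAT2, incubated 1 h at room temperature in 100 mmol/L phosphate pH 7.4 with 2 mmol/L DTT. The substrate solution held 30 μmol/L 2-oleoylglycerol and 10 μmol/L oleoyl-CoA. Diolein product was quantified by RapidFire ESI Q-TOF MS against diolein-d5 internal standard; % inhibition was set relative to with/without-enzyme controls.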

Chain of recombinant human MGAT2 (Q3SYC2 whole entry): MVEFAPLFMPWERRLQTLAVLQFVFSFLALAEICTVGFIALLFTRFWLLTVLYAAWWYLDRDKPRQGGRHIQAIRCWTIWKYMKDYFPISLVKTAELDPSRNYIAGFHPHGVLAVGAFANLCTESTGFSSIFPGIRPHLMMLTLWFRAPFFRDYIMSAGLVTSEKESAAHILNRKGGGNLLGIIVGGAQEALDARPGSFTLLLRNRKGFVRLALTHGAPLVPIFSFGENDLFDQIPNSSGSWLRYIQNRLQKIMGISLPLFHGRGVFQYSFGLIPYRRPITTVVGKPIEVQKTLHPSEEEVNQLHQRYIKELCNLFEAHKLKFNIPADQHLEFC

Row | SMILES | IC50
1 | Cn1ccc(C(=O)Nc2c3c(nn2CCC2CC2)C[C@]2(CCc4cc(OCC(F)(F)F)ccc42)NC3=O)n1 [Compound I-232] | 0.27 µM
2 | C=C(C)c1ccc(-n2nc3c(c2NC(=O)CS(C)(=O)=O)C(=O)N[C@@]2(CCc4cc(OCC(F)(F)F)ccc42)C3)nc1 [Compound I-233] | 0.011 µM
3 | CS(=O)(=O)CC(=O)Nc1c2c(nn1CCC1CC1)C[C@]1(CCc3cc(N4CC(C(F)(F)F)C4)ccc31)NC2=O [Compound I-234] | 0.0098 µM
4 | CS(=O)(=O)CC(=O)Nc1c2c(nn1CCC1CC1)C[C@]1(CCc3cc(N4CCC4)ccc31)NC2=O [Compound I-235] | 0.085 µM
5 | CC(C)(O)c1ccc(-n2nc3c(c2NC(=O)CS(C)(=O)=O)C(=O)N[C@@]2(CCc4cc(OCC(F)(F)F)ccc42)C3)nc1 [Compound I-237] | 0.016 µM
6 | CC(C)c1ccc(-n2nc3c(c2NC(=O)CS(C)(=O)=O)C(=O)N[C@@]2(CCc4cc(OCC(F)(F)F)ccc42)C3)nc1 [Compound I-238] | 0.01 µM
7 | CCCc1cccc(-n2nc3c(c2NC(=O)CS(C)(=O)=O)C(=O)N[C@@]2(CCc4cc(OCC(F)(F)F)ccc42)C3)c1 [Compound I-239] | 0.38 µM
8 | CC(C)(O)c1cccc(-n2nc3c(c2NC(=O)CS(C)(=O)=O)C(=O)N[C@@]2(CCc4cc(OCC(F)(F)F)ccc42)C3)c1 [Compound I-240] | 1 µM
9 | O=C(NCc1c2c(nn1CCC1CC1)C[C@]1(CCc3cc(OCC(F)(F)F)ccc31)NC2=O)c1ccc(O)cc1 [Compound I-241] | 0.38 µM
10 | CS(=O)(=O)CC(=O)Nc1c2c(nn1-c1ccc(C#N)cn1)C[C@@]1(CCc3cc(C4CC4)ccc31)NC2=O [Compound I-242] | 0.0036 µM
11 | CS(=O)(=O)CC(=O)Nc1c2c(nn1-c1ccc(C#N)cn1)C[C@]1(CCOc3cc(OCC(F)(F)F)ccc31)NC2=O [Compound I-243] | 0.0035 µM
12 | COc1cccc(-n2nc3c(c2NC(=O)CS(C)(=O)=O)C(=O)N[C@@]2(CCc4cc(OCC(F)(F)F)ccc42)C3)c1 [Compound I-244] | 0.11 µM
13 | CS(=O)(=O)CC(=O)Nc1c2c(nn1-c1cccc(C#N)c1)C[C@]1(CCc3cc(OCC(F)(F)F)ccc31)NC2=O [Compound I-245] | 0.53 µM
14 | CS(=O)(=O)CC(=O)Nc1c2c(nn1-c1ccc3c(c1)CCC3)C[C@]1(CCc3cc(OCC(F)(F)F)ccc31)NC2=O [Compound I-246] | 0.024 µM
15 | CS(=O)(=O)CC(=O)Nc1c2c(nn1-c1ccc3c(c1)OC(F)(F)O3)C[C@]1(CCc3cc(OCC(F)(F)F)ccc31)NC2=O [Compound I-247] | 0.084 µM
16 | CS(=O)(=O)CC(=O)Nc1c2c(nn1-c1cccc(C3CC3)c1)C[C@]1(CCc3cc(OCC(F)(F)F)ccc31)NC2=O [Compound I-248] | 0.24 µM
17 | CS(=O)(=O)CC(=O)Nc1c2c(nn1CCC1CC1)C[C@@]1(CCc3cc(OCC(F)(F)F)cc(F)c31)NC2=O [Compound I-249] | 0.0035 µM
18 | CCOCCn1nc2c(c1NC(=O)CS(C)(=O)=O)C(=O)N[C@@]1(CCc3cc(OCC(F)(F)F)ccc31)C2 [Compound I-250] | 0.15 µM
19 | COCCCCn1nc2c(c1NC(=O)CS(C)(=O)=O)C(=O)N[C@@]1(CCc3cc(OCC(F)(F)F)ccc31)C2 [Compound I-251] | 0.49 µM
20 | COCCCn1nc2c(c1NC(=O)CS(C)(=O)=O)C(=O)N[C@@]1(CCc3cc(OCC(F)(F)F)ccc31)C2 [Compound I-252] | 0.013 µM
21 | CS(=O)(=O)CC(=O)Nc1c2c(nn1CCCC#N)C[C@]1(CCc3cc(OCC(F)(F)F)ccc31)NC2=O [Compound I-254] | 0.095 µM
22 | CS(=O)(=O)CC(=O)Nc1c2c(nn1CCCCC(F)(F)F)C[C@]1(CCc3cc(OCC(F)(F)F)ccc31)NC2=O [Compound I-255] | 0.017 µM
23 | CS(=O)(=O)CC(=O)Nc1c2c(nn1CCC(F)(F)F)C[C@]1(CCc3cc(OCC(F)(F)F)ccc31)NC2=O [Compound I-256] | 0.16 µM

Row | SMILES | IC50
24 | CS(=O)(=O)CC(=O)Nc1c2c(nn1CC1CCCO1)C[C@]1(CCc3cc(OCC(F)(F)F)ccc31)NC2=O (some centres unmarked) [Compound I-257] | 0.08 µM
25 | CS(=O)(=O)CC(=O)Nc1c2c(nn1CCC1CCOCC1)C[C@]1(CCc3cc(OCC(F)(F)F)ccc31)NC2=O [Compound I-258] | 0.12 µM
26 | CC1(C)CCC(Cn2nc3c(c2NC(=O)CS(C)(=O)=O)C(=O)N[C@@]2(CCc4cc(OCC(F)(F)F)ccc42)C3)O1 (some centres unmarked) [Compound I-259] | 0.059 µM
27 | CS(=O)(=O)CC(=O)Nc1c2c(nn1Cc1ccon1)C[C@]1(CCc3cc(OCC(F)(F)F)ccc31)NC2=O [Compound I-260] | 0.49 µM
28 | CS(=O)(=O)CC(=O)Nc1c2c(nn1CCc1ccc(F)cc1)C[C@]1(CCc3cc(OCC(F)(F)F)ccc31)NC2=O [Compound I-261] | 0.016 µM
29 | COc1ccc(-n2nc3c(c2NC(=O)CS(C)(=O)=O)C(=O)N[C@@]2(CCc4cc(OCC(F)(F)F)ccc42)C3)nc1 [Compound I-262] | 0.034 µM
30 | Cc1ccc(-n2nc3c(c2NC(=O)CS(C)(=O)=O)C(=O)N[C@@]2(CCc4cc(OCC(F)(F)F)ccc42)C3)nn1 [Compound I-263] | 0.0047 µM
31 | Cc1cnc(-n2nc3c(c2NC(=O)CS(C)(=O)=O)C(=O)N[C@@]2(CCc4cc(OCC(F)(F)F)ccc42)C3)cn1 [Compound I-264] | 0.086 µM
32 | CS(=O)(=O)CC(=O)Nc1c2c(nn1-c1cccnn1)C[C@]1(CCc3cc(OCC(F)(F)F)ccc31)NC2=O [Compound I-265] | 0.036 µM
33 | Cc1ccc(-n2nc3c(c2NC(=O)CS(C)(=O)=O)C(=O)N[C@]2(CCc4cc(OCC(F)(F)F)ccc42)C3)cc1 [Compound I-266] | 0.0046 µM
34 | Cc1cccc(-n2nc3c(c2NC(=O)CS(C)(=O)=O)C(=O)N[C@]2(CCc4cc(OCC(F)(F)F)ccc42)C3)c1 [Compound I-267] | 0.0098 µM
35 | CS(=O)(=O)CC(=O)Nc1c2c(nn1-c1ccc(F)cc1)C[C@@]1(CCc3cc(OCC(F)(F)F)ccc31)NC2=O [Compound I-269] | 0.0055 µM
36 | Cc1ccc(-n2nc3c(c2NC(=O)CS(C)(=O)=O)C(=O)N[C@]2(CCc4cc(OCC(F)(F)F)ccc42)C3)nc1 [Compound I-270] | 0.0028 µM
37 | CS(=O)(=O)CC(=O)Nc1c2c(nn1-c1cnccn1)C[C@@]1(CCc3cc(OCC(F)(F)F)ccc31)NC2=O [Compound I-271] | 0.78 µM
38 | CS(=O)(=O)CC(=O)Nc1c2c(nn1-c1ccncn1)C[C@@]1(CCc3cc(OCC(F)(F)F)ccc31)NC2=O [Compound I-272] | 0.02 µM
39 | CS(=O)(=O)CC(=O)Nc1c2c(nn1C1CCCCC1)C[C@@]1(CCc3cc(OCC(F)(F)F)ccc31)NC2=O [Compound I-273] | 0.02 µM
40 | Cc1ccc(-n2nc3c(c2NC(=O)CS(C)(=O)=O)C(=O)N[C@@]2(CCOc4cc(OCC(F)(F)F)ccc42)C3)cc1 [Compound I-274] | 0.0039 µM
41 | O=C1N[C@@]2(CCc3cc(OCC(F)(F)F)cc(F)c32)Cc2nn(CCC3CC3)c(-c3nnn[nH]3)c21 [Compound I-278] | 0.029 µM
42 | CS(=O)(=O)NC(=O)c1c2c(nn1CCC1CC1)C[C@]1(CCc3cc(OCC(F)(F)F)ccc31)NC2=O [Compound I-279] | 0.0505 µM
43 | O=C1N[C@@]2(CCc3cc(OCC(F)(F)F)ccc32)Cc2nn(CCC3CC3)c(-c3nn[nH]n3)c21 [Compound I-280] | 0.048 µM
44 | CS(=O)(=O)CC(=O)Nc1c2c(nn1CCC1CC1)C[C@]1(CCc3cc(CN4CC(F)(F)C4)ccc31)NC2=O [Compound I-281] | 0.072 µM
45 | CS(=O)(=O)CC(=O)Nc1c2c(nn1-c1ccc(C#N)cn1)C[C@]1(CCc3cc(F)cc(F)c31)NC2=O [Compound I-284] | 0.00935 µM
46 | CS(=O)(=O)CC(=O)Nc1c2c(nn1-c1ccc(C(F)(F)F)cn1)C[C@]1(CCc3cc(F)cc(F)c31)NC2=O [Compound I-285] | 0.0035 µM

Same assay, conditions: read-out: IC50 (concentration exhibiting 50% enzyme inhibition), Table 53

Row | SMILES | IC50
47 | CS(=O)(=O)CC(=O)Nc1c2c(nn1CCC1CC1)C1(Cc3ccc(OCC(F)(F)F)cc3C1)NC2=O (centres unmarked) [II-1] | 0.046 µM
48 | CS(=O)(=O)CC(=O)Nc1c2c(nn1-c1ccc(C#N)cn1)C1(Cc3cc(F)c(F)cc3C1)NC2=O [II-4] | 0.032 µM
49 | Cc1cccc(-n2nc3c(c2NC(=O)CS(C)(=O)=O)C(=O)N[C@@]2(CCOc4cc(OCC(F)(F)F)ccc42)C3)c1 [II-5] | 0.0046 µM
50 | COc1ccc(-n2nc3c(c2NC(=O)CS(C)(=O)=O)C(=O)N[C@@]2(CCOc4cc(OCC(F)(F)F)ccc42)C3)cc1 [II-6] | 0.019 µM
51 | CS(=O)(=O)CC(=O)Nc1c2c(nn1-c1ccncn1)C[C@]1(CCOc3cc(OCC(F)(F)F)ccc31)NC2=O [II-7] | 0.02 µM
52 | CS(=O)(=O)CC(=O)Nc1c2c(nn1CCC1CC1)C[C@@]1(CCOc3cc(OCC(F)(F)F)ccc31)NC2=O [II-9] | 0.0095 µM
53 | CS(=O)(=O)CC(=O)Nc1c2c(nn1C1CC3(COC3)C1)C[C@]1(CCc3cc(OCC(F)(F)F)ccc31)NC2=O [II-11] | 0.064 µM
54 | CS(=O)(=O)CC(=O)Nc1c2c(nn1CC1CC(F)(F)C1)C[C@]1(CCc3cc(OCC(F)(F)F)ccc31)NC2=O [II-12] | 0.035 µM
55 | CS(=O)(=O)CC(=O)Nc1c2c(nn1CCc1ccccc1F)C[C@]1(CCc3cc(OCC(F)(F)F)ccc31)NC2=O [II-13] | 0.027 µM
56 | CS(=O)(=O)CC(=O)Nc1c2c(nn1C1CCCCC1)C[C@]1(CCOc3cc(OCC(F)(F)F)ccc31)NC2=O [II-15] | 0.012 µM
57 | CS(=O)(=O)CC(=O)Nc1c2c(nn1-c1ccc(C#N)cn1)CC1(CN(Cc3ccc(C(F)(F)F)cc3)C1)NC2=O [II-16] | 0.028 µM
58 | CS(=O)(=O)CC(=O)Nc1c2c(nn1-c1ccc(C#N)cn1)C[C@](c1ccc(OCC(F)(F)F)cc1)(C(F)(F)F)NC2=O [II-17] | 0.038 µM
59 | CS(=O)(=O)CC(=O)Nc1c2c(nn1CCOCC(F)F)C[C@@]1(CCc3cc(OCC(F)(F)F)ccc31)NC2=O [II-18] | 0.047 µM
60 | CS(=O)(=O)CC(=O)Nc1c2c(nn1CCCCC(F)(F)F)C[C@@]1(CCc3cc(OCC(F)(F)F)ccc31)NC2=O [II-19] | 0.012 µM
61 | CS(=O)(=O)CC(=O)Nc1c2c(nn1CCCOC(F)(F)F)C[C@@]1(CCc3cc(OCC(F)(F)F)ccc31)NC2=O [II-20] | 0.00156 µM
62 | COCCCn1nc2c(c1NC(=O)CS(C)(=O)=O)C(=O)N[C@]1(CCc3cc(OCC(F)(F)F)ccc31)C2 [II-21] | 0.017 µM
